According to PubChem BioAssay AID1918931 (Molecular Pharmacology Branch, DTP, NCI, 2023):
pIC50: −log10 of the molar value.

Test system: 138582-337-R-J1-PDC complex spheroid viability
Experiment: Anticancer human tumor 138582-337-R-J1-PDC patient-derived Merkel cell tumor cell line growth inhibition
Conditions: for pIC50: curve of first compound; for viability, T/C: stronger effect = lower value
Outline: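 Complex spheroids of tumor cells with HUVEC and human MSCs, exposed to iadademstat combined with other agents. Each agent tested in half-log steps from near clinical Cmax (else 10 microM top), DMSO ≤0.25%.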

[1] = second compound 0.1 µM, first compound 0.000316 µM
[2] = second compound 0.1 µM, first compound 0.001 µM
[3] = second compound 0.1 µM, first compound 0.00316 µM
[4] = second compound 0.1 µM, first compound 0.01 µM
[5] = second compound 0.1 µM, first compound 0.0316 µM
[6] = second compound 0.1 µM, first compound 0.1 µM
[7] = second compound 0.316 µM, first compound 0.000316 µM
[8] = second compound 0.316 µM, first compound 0.001 µM
[9] = second compound 0.316 µM, first compound 0.00316 µM
[10] = second compound 0.316 µM, first compound 0.01 µM
[11] = second compound 0.316 µM, first compound 0.0316 µM
[12] = second compound 0.316 µM, first compound 0.1 µM
[13] = second compound 1 µM, first compound 0.000316 µM
[14] = second compound 1 µM, first compound 0.001 µM
[15] = second compound 1 µM, first compound 0.00316 µM
[16] = second compound 1 µM, first compound 0.01 µM
[17] = second compound 1 µM, first compound 0.0316 µM
[18] = second compound 1 µM, first compound 0.1 µM
[19] = second compound 3.16 µM, first compound 0.000316 µM
[20] = second compound 3.16 µM, first compound 0.001 µM
[21] = second compound 3.16 µM, first compound 0.00316 µM
[22] = second compound 3.16 µM, first compound 0.01 µM
[23] = second compound 3.16 µM, first compound 0.0316 µM
[24] = second compound 3.16 µM, first compound 0.1 µM
[25] = second compound 10 µM, first compound 0.000316 µM
[26] = second compound 10 µM, first compound 0.001 µM
[27] = second compound 10 µM, first compound 0.00316 µM
[28] = second compound 10 µM, first compound 0.01 µM
[29] = second compound 10 µM, first compound 0.0316 µM
[30] = second compound 10 µM, first compound 0.1 µM
[31] = second compound 0.1 µM, first compound 0.00949 µM
[32] = second compound 0.1 µM, first compound 0.03 µM
[33] = second compound 0.1 µM, first compound 0.0949 µM
[34] = second compound 0.1 µM, first compound 0.3 µM
[35] = second compound 0.1 µM, first compound 0.949 µM
[36] = second compound 0.1 µM, first compound 3 µM
[37] = second compound 0.316 µM, first compound 0.00949 µM
[38] = second compound 0.316 µM, first compound 0.03 µM
[39] = second compound 0.316 µM, first compound 0.0949 µM
[40] = second compound 0.316 µM, first compound 0.3 µM
[41] = second compound 0.316 µM, first compound 0.949 µM
[42] = second compound 0.316 µM, first compound 3 µM
[43] = second compound 1 µM, first compound 0.00949 µM
[44] = second compound 1 µM, first compound 0.03 µM
[45] = second compound 1 µM, first compound 0.0949 µM
[46] = second compound 1 µM, first compound 0.3 µM
[47] = second compound 1 µM, first compound 0.949 µM
[48] = second compound 1 µM, first compound 3 µM
[49] = second compound 3.16 µM, first compound 0.00949 µM
[50] = second compound 3.16 µM, first compound 0.03 µM
[51] = second compound 3.16 µM, first compound 0.0949 µM
[52] = second compound 3.16 µM, first compound 0.3 µM
[53] = second compound 3.16 µM, first compound 0.949 µM
[54] = second compound 3.16 µM, first compound 3 µM
[55] = second compound 10 µM, first compound 0.00949 µM
[56] = second compound 10 µM, first compound 0.03 µM
[57] = second compound 10 µM, first compound 0.0949 µM
[58] = second compound 10 µM, first compound 0.3 µM
[59] = second compound 10 µM, first compound 0.949 µM
[60] = second compound 10 µM, first compound 3 µM
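For viability, T/C in this document: 100% = DMSO vehicle control viability.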

CC(C)CC(NC(=O)C(Cc1ccccc1)NC(=O)c1cnccn1)B(O)O (stereo not given) + NC1CCC(NC2CC2c2ccccc2)CC1
pIC50 (second compound 0.1 µM): 8.99 | pIC50 (second compound 0.316 µM): 9.00 | pIC50 (second compound 1 µM): 9.02 | pIC50 (second compound 3.16 µM): 9.02 | pIC50 (second compound 10 µM): 9.07 | viability, T/C [1]: 125% | viability, T/C [2]: 51.3% | viability, T/C [3]: 0.5% | viability, T/C [4]: 0.19% | viability, T/C [5]: 0.22% | viability, T/C [6]: 0.28% | viability, T/C [7]: 116% | viability, T/C [8]: 50.6% | viability, T/C [9]: 0.83% | viability, T/C [10]: 0.29% | viability, T/C [11]: 0.16% | viability, T/C [12]: 0.25% | viability, T/C [13]: 114% | viability, T/C [14]: 46.8% | viability, T/C [15]: 0.91% | viability, T/C [16]: 0.12% | viability, T/C [17]: 0.14% | viability, T/C [18]: 0.29% | viability, T/C [19]: 116% | viability, T/C [20]: 47% | viability, T/C [21]: 1.46% | viability, T/C [22]: 0.18% | viability, T/C [23]: 0.15% | viability, T/C [24]: 0.25% | viability, T/C [25]: 105% | viability, T/C [26]: 40.3% | viability, T/C [27]: 0.75% | viability, T/C [28]: 0.3% | viability, T/C [29]: 0.22% | viability, T/C [30]: 0.24%

CC(C)CC(NC(=O)CNC(=O)c1cc(Cl)ccc1Cl)B1OC(=O)CC(CC(=O)O)(C(=O)O)O1 (stereo not given) + NC1CCC(NC2CC2c2ccccc2)CC1
pIC50 (second compound 0.1 µM): 8.05 | pIC50 (second compound 0.316 µM): 8.05 | pIC50 (second compound 1 µM): 8.00 | pIC50 (second compound 3.16 µM): 8.10 | pIC50 (second compound 10 µM): 8.07 | viability, T/C [1]: 101% | viability, T/C [2]: 129% | viability, T/C [3]: 124% | viability, T/C [4]: 42.3% | viability, T/C [5]: 6.66% | viability, T/C [6]: 0.46% | viability, T/C [7]: 109% | viability, T/C [8]: 129% | viability, T/C [9]: 115% | viability, T/C [10]: 42.9% | viability, T/C [11]: 11.4% | viability, T/C [12]: 0.49% | viability, T/C [13]: 94.4% | viability, T/C [14]: 115% | viability, T/C [15]: 120% | viability, T/C [16]: 50.1% | viability, T/C [17]: 7.89% | viability, T/C [18]: 0.25% | viability, T/C [19]: 104% | viability, T/C [20]: 98.8% | viability, T/C [21]: 112% | viability, T/C [22]: 37.1% | viability, T/C [23]: 9.88% | viability, T/C [24]: 0.47% | viability, T/C [25]: 89.8% | viability, T/C [26]: 105% | viability, T/C [27]: 101% | viability, T/C [28]: 42% | viability, T/C [29]: 7.38% | viability, T/C [30]: 0.96%

Nc1ccccc1NC(=O)c1ccc(CNC(=O)OCc2cccnc2)cc1 + NC1CCC(NC2CC2c2ccccc2)CC1
pIC50 (second compound 0.1 µM): 5.96 | pIC50 (second compound 0.316 µM): 5.96 | pIC50 (second compound 1 µM): 5.99 | pIC50 (second compound 3.16 µM): 6.00 | pIC50 (second compound 10 µM): 6.86 | viability, T/C [31]: 103% | viability, T/C [32]: 81.7% | viability, T/C [33]: 83.9% | viability, T/C [34]: 101% | viability, T/C [35]: 57.1% | viability, T/C [36]: 1.81% | viability, T/C [37]: 88.8% | viability, T/C [38]: 76.8% | viability, T/C [39]: 79.5% | viability, T/C [40]: 86.1% | viability, T/C [41]: 57% | viability, T/C [42]: 1.94% | viability, T/C [43]: 96.1% | viability, T/C [44]: 80.2% | viability, T/C [45]: 77.3% | viability, T/C [46]: 92.5% | viability, T/C [47]: 53.5% | viability, T/C [48]: 0.81% | viability, T/C [49]: 90.5% | viability, T/C [50]: 82.3% | viability, T/C [51]: 74.5% | viability, T/C [52]: 76.4% | viability, T/C [53]: 53.5% | viability, T/C [54]: 0.82% | viability, T/C [55]: 74.2% | viability, T/C [56]: 57.8% | viability, T/C [57]: 62.2% | viability, T/C [58]: 35.4% | viability, T/C [59]: 17.7% | viability, T/C [60]: 0.52%

O=C(C=Cc1cccc(S(=O)(=O)Nc2ccccc2)c1)NO + NC1CCC(NC2CC2c2ccccc2)CC1
pIC50 (second compound 0.1 µM): 6.24 | pIC50 (second compound 0.316 µM): 6.17 | pIC50 (second compound 1 µM): 6.25 | pIC50 (second compound 3.16 µM): 6.32 | pIC50 (second compound 10 µM): 6.39 | viability, T/C [31]: 82.7% | viability, T/C [32]: 90.2% | viability, T/C [33]: 96% | viability, T/C [34]: 75.3% | viability, T/C [35]: 30.4% | viability, T/C [36]: 2.19% | viability, T/C [37]: 69.6% | viability, T/C [38]: 89.3% | viability, T/C [39]: 95.8% | viability, T/C [40]: 93.6% | viability, T/C [41]: 34.7% | viability, T/C [42]: 2.29% | viability, T/C [43]: 85.3% | viability, T/C [44]: 92.6% | viability, T/C [45]: 97.8% | viability, T/C [46]: 66.5% | viability, T/C [47]: 34.1% | viability, T/C [48]: 1.94% | viability, T/C [49]: 76.5% | viability, T/C [50]: 92.3% | viability, T/C [51]: 79.5% | viability, T/C [52]: 64.7% | viability, T/C [53]: 28.7% | viability, T/C [54]: 0.44% | viability, T/C [55]: 73.9% | viability, T/C [56]: 77.6% | viability, T/C [57]: 82.2% | viability, T/C [58]: 52.3% | viability, T/C [59]: 29.9% | viability, T/C [60]: 0.47%

O=C(c1cc(Cc2n[nH]c(=O)c3ccccc23)ccc1F)N1CCN(C(=O)C2CC2)CC1 + NC1CCC(NC2CC2c2ccccc2)CC1
pIC50 (second compound 0.1 µM): < 5.00 | pIC50 (second compound 0.316 µM): < 5.00 | pIC50 (second compound 1 µM): < 5.00 | pIC50 (second compound 3.16 µM): < 5.00 | pIC50 (second compound 10 µM): < 5.00 | viability, T/C [5]: 102% | viability, T/C [6]: 91.2% | viability, T/C (second compound 0.1 µM, first compound 0.316 µM): 86.7% | viability, T/C (second compound 0.1 µM, first compound 1 µM): 92.7% | viability, T/C (second compound 0.1 µM, first compound 3.16 µM): 84.3% | viability, T/C (second compound 0.1 µM, first compound 10 µM): 95.7% | viability, T/C [11]: 99.6% | viability, T/C [12]: 99.9% | viability, T/C (second compound 0.316 µM, first compound 0.316 µM): 88.1% | viability, T/C (second compound 0.316 µM, first compound 1 µM): 85.8% | viability, T/C (second compound 0.316 µM, first compound 3.16 µM): 80.1% | viability, T/C (second compound 0.316 µM, first compound 10 µM): 103% | viability, T/C [17]: 102% | viability, T/C [18]: 98.1% | viability, T/C (second compound 1 µM, first compound 0.316 µM): 92.5% | viability, T/C (second compound 1 µM, first compound 1 µM): 81.1% | viability, T/C (second compound 1 µM, first compound 3.16 µM): 79% | viability, T/C (second compound 1 µM, first compound 10 µM): 104% | viability, T/C [23]: 83.8% | viability, T/C [24]: 98.3% | viability, T/C (second compound 3.16 µM, first compound 0.316 µM): 113% | viability, T/C (second compound 3.16 µM, first compound 1 µM): 76.5% | viability, T/C (second compound 3.16 µM, first compound 3.16 µM): 86.7% | viability, T/C (second compound 3.16 µM, first compound 10 µM): 75.7% | viability, T/C [29]: 78.5% | viability, T/C [30]: 104% | viability, T/C (second compound 10 µM, first compound 0.316 µM): 77.7% | viability, T/C (second compound 10 µM, first compound 1 µM): 74.1% | viability, T/C (second compound 10 µM, first compound 3.16 µM): 79.6% | viability, T/C (second compound 10 µM, first compound 10 µM): 63.7%
